The values below come from patent publication US6613761B1, “Benzoxazepine compounds, their production and use” (Takeda Chemical Industries, Ltd., priority 1995, dated 2003).

The target in one data set is T1, squalene synthetase (Homo sapiens, UniProt P37268).
T1 construct: This suspension was used as the enzyme solution; endogenous in cells; host or cells: HepG2 human hepatic carcinoma cells; membrane fraction (105000×g sediment) of the sonicate
T1 sequence (P37268 1-417): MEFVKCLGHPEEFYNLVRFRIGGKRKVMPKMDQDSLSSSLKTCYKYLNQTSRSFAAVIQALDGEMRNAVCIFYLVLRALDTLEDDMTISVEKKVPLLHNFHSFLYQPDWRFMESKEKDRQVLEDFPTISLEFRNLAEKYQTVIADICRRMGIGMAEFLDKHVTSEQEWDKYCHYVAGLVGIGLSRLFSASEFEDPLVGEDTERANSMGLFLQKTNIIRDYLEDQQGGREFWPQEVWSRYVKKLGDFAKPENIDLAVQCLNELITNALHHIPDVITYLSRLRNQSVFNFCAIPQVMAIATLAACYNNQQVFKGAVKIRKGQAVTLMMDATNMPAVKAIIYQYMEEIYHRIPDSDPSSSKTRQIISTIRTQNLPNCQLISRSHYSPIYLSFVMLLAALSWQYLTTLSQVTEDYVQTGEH
As to the kind of experiment: Squalene synthetase inhibitory activity (human-derived enzyme prepared from HepG2 cells). It is filed as biochemical. The note with it: [1-3H] farnesyl pyrophosphate, 37° C., 45 minutes, read-out: Inhibitory Activity (IC50, 10^−9 M). How it is done:
The squalene synthetase inhibitory activity was assayed as follows with the enzyme solutions prepared in accordance with the method described below.
More specifically, an enzyme solution (protein content 0.8 μg) prepared in accordance with the method described below was added to a solution (total volume 50 μl)) containing 5 μM [1-^3H] farnesyl pyrophosphate (specific activity 25 μCi/mole), 1 mM NADPH (nicotinamide adenine dinucleotide phosphate of reduced type), 5 mM MgCl2, 6 mM glutathione, a 100 mM buffer solution of potassium phosphate (pH 7.4) and a test drug (used as an aqueous solution or a DMSO solution), then the reaction was allowed to proceed at 37° C. for 45 minutes. To the reaction mixture was added 150 μl of a mixture of chloroform and methanol (1:2) to suspend the reaction, followed by adding 50 Al of chloroform and 50 μl of a 3N solution of sodium hydroxide. 50 μl of the chloroform layer (lower layer) containing the reaction mixture having squalene as the principal component and 3 ml of toluene-based liquid scintillator were mixed, and its radioactivity was determined by means of a liquid scintillation counter.
The squalene synthetase inhibitory activity was expressed in terms of the concentration inhibiting by 50% the radioactivity taken into the chloroform layer (IC50, molar concentration (M)), as shown in Table 7. Preparation of human-derived enzyme
Human hepatic carcinoma cells HepG2 (about 1×10^9 cells) obtained by incubation on a Dulbecco-modified Eagle's medium (37° C. in the presence of 5% CO2) containing 10% fetal bovine serum were suspended in 10 ml of an ice-cooled buffer solution (100 mM potassium phosphate buffer (pH 7.4), 30 mM nicotinamide and 2.5 mM MgCl2]. The cells were crashed by means of ultrasonication (for 30 seconds, twice). The sonicate thus obtained was subjected to centrifugation for 20 minutes (4° C.) with 10000×g. The supernatant layer was subjected to further centrifugation for 90 minutes (4° C.) with 105000×g. The sediment was then suspended in an ice-cooled 100 mM potassium phosphate buffer (pH 7.4), which was again subjected to centrifugation for 90 minutes (4° C.) with 105000×g. This fraction was suspended in an ice-cooled 100 mM potassium phosphate buffer solution (pH 7.4) (about 4 mg/ml protein concentration). This suspension was used as the enzyme solution.

Data set [1] deals with Cholesterol biosynthesis in the liver. Description: Assay of cholesterogenesis in the liver. It is filed as in vivo. As to conditions: Wistar fatty rats, liver total sterol radioactivity from 14C sodium acetate. The procedure: Cholesterol biosynthesis in the liver of a rat was assayed as follows. Six-week old Wistar fatty rats were given orally a test compound [Compound 4-2 (suspended in a 0.5% methyl cellulose solution)], while the control group was orally given only a 0.5% methyl cellulose solution. One hour later, sodium acetate labelled with radioisotope ^14C (manufactured by Amasham) was given intravenously at the tail (10 μCi/0.3 ml physiological saline/rat). One hour layer, rats were sacrificed by decapitation, and 1.5 g of the first lobe of the liver was removed, which was saponified by immersing in 3.9 ml of an alkaline ethanol solution (KOH:EtOH=1:2) at 100° C. for two hours, followed by extraction with 5 ml each portion of petroleum ether three times. The extract solution was dried, which was dissolved in 3 ml of ethanol:acetone (1:1). To the solution was added 2 ml of a 0.5% digitonin-ethanol solution. The mixture was left standing for one hour. Resulting precipitates were collected as total sterol, and the radioactivity was measured by means of a liquid scintillation counter.

Turning to `COc1cccc([C@H]2O[C@H](CC(=O)N[C@@H](CC(C)C)C(=O)O)C(=O)N(CC(C)(C)C)c3ccc(Cl)cc32)c1OC` [Compound 4-30], the melting point (as a rule, the temperature, or range, at which the solid turns liquid) fell in the range of 87 to 92 °C. Besides, the IC50 – broadly, the point on the concentration scale where inhibition reaches its midpoint – on squalene synthetase turned out to be 0.012 µM.
For `COc1cccc([C@H]2O[C@H](CC(=O)N3CCC(CP(=O)(O)O)CC3)C(=O)N(CC(C)(C)C)c3ccc(Cl)cc32)c1OC` [Compound 23, N-[(3R,5S)-7-chloro-5-(2,3-dimethoxyphenyl)-1-neopentyl-2-oxo-1,2,3,5-tetrahydro-4,1-benzoxazepine-3-acetyl]-4-phosphonomethylpiperidine] the same measures were 174 to 175 °C and 0.012 µM.
Taken in the same sequence, the figures for `COc1cccc([C@H]2O[C@H](CC(=O)N(C)CC(=O)O)C(=O)N(CC(C)(C)C)c3ccc(Cl)cc32)c1OC` [Compound 4-12] were 134 to 136 °C and 0.011 µM.
Taken in the same sequence, the figures for `COc1cccc([C@H]2O[C@H](CC(=O)N3CCC(O)(CC(=O)O)CC3)C(=O)N(CC(C)(C)C)c3ccc(Cl)cc32)c1OC` [Compound 4-20] were 163 to 166 °C and 0.017 µM.
`COc1cccc([C@H]2O[C@H](CC(=O)NS(=O)(=O)c3ccccc3)C(=O)N(CC(C)(C)C)c3ccc(Cl)cc32)c1OC` [Compound 17-2] showed a melting point of 158 to 161 °C. The IC50 at squalene synthetase is 0.0093 µM.
Taken in the same sequence, the figures for `CCS(=O)(=O)NC(=O)C[C@H]1O[C@H](c2cccc(OC)c2OC)c2cc(Cl)ccc2N(CC(C)(C)C)C1=O` [Compound 17-4] were 135 to 140 °C and 0.0093 µM.
For `COc1cccc([C@H]2O[C@H](CC(=O)N[C@@H](CCC(=O)O)C(=O)O)C(=O)N(CC(C)(C)C)c3ccc(Cl)cc32)c1OC` [Compound 4-9] the same measures were 152 to 155 °C and 0.011 µM.
Consider `COc1cccc([C@H]2O[C@H](Cc3nnn[nH]3)C(=O)N(CC(C)(C)C)c3ccc(Cl)cc32)c1OC` [Compound 7, (3R,5S)-7-Chloro-5-(2,3-dimethoxyphenyl)-1-neopentyl-1,2,3,5-tetrahydro-3-[1H(or 3H)-tetrazol-5-yl]methyl-4,1-benzoxazepin-2-one], for which the melting point fell in the range of 148 to 150 °C. For the same compound, the IC50 at squalene synthetase came out at 0.011 µM.
In turn, `COc1cccc([C@H]2O[C@H](CC(=O)N3CCC(CC(=O)O)CC3)C(=O)N(CC(C)(C)C)c3ccc(Cl)cc32)c1OC` [Compound 4-2, N-[(3R,5S)-7-chloro-5-(2,3-dimethoxyphenyl)-1-neopentyl-2-oxo-1,2,3,5-tetrahydro-4,1-benzoxazepine-3-acetyl]piperidine-4-acetic acid] displayed a melting point of 137 to 140 °C. Further, the IC50 on squalene synthetase came out at 0.022 µM. Also, the “Cholesterogenesis inhibitory rate (%)” value in data set [1] (0.6 mg/kg given orally) is on record as 80.1%. In addition, the “Cholesterogenesis inhibitory rate (%)” value in data set [1] (2.0 mg/kg given orally) came out at 90.4%.
As to `COc1cccc([C@H]2O[C@H](CC(=O)NCCC(=O)O)C(=O)N(CC(C)(C)C)c3ccc(Cl)cc32)c1OC` [Compound 4-21], the melting point lay within 165 to 167 °C. The IC50 on squalene synthetase turned out to be 0.011 µM.
